This note sets out measurements from US20240226059A1, “COMPOSITION FOR INHIBITING ANGIOGENESIS AND ENHANCING THERAPEUTIC EFFECT OF ANTICANCER DRUGS IN CANCER PATIENT” (KANT SCIENCE INC., priority 2020, published 2024).

Holding throughout (type): cell-based
Experiment [1] has as its system Breast cancer cells. As to the kind of experiment: Intracellular acidity (pH) of breast cancer cells at normal or low glucose. Particulars: low-carbohydrate state (glucose 5 nM), in combination with paclitaxel (PTX); FIG. 1, FIG. 2. The protocol: Breast cancer cells were cultured at a normal glucose (GLU) concentration of […] or a low concentration of […], and intracellular acidity was confirmed with or without the treatment of paclitaxel (PTX), which is an anticancer drug, and cariporide (CAR), which is a drug that regulates intracellular acidity.

The test system of experiment [2] is Breast cancer cells. As to the kind of experiment: Cell viability of breast cancer cells at normal or low glucose. The note with it: low-carbohydrate state (glucose 5 nM), in combination with paclitaxel (PTX); FIG. 3. The protocol:
Breast cancer cells were cultured at a normal glucose (GLU) concentration of […] or a low concentration of […], and cell viability was confirmed with and without the treatment of paclitaxel (PTX), which is an anticancer drug, and cariporide (CAR) or curcumin (CUR).

In a further experiment the test system is colorectal cancer cells. Kind of experiment: Anticancer drug resistance (GR50 ratio) of colorectal cancer cells at high or low glucose. Particulars: low glucose (5 nM), in combination with irinotecan; FIG. 4. The protocol: Furthermore, colorectal cancer cells were cultured at a high glucose concentration ([…]) or a low glucose concentration ([…]), and it was confirmed by a growth rate 50 ratio (GR50 ratio) while treating irinotecan, which is an anticancer drug, and cariporide in combination whether the cancer cells had anticancer drug resistance.

Molecules are shown by their SMILES. “Also recorded” adds a separate entry of the source.

With `CC(C)c1ccc(C(=O)NC(=N)N)cc1S(C)(=O)=O` [cariporide], in the experiment with Breast cancer cells [1], the intracellular acidity entry is listed as “maintained normal pH; also recorded: closest to normal”. The “anticancer effect (cell viability)” value with Breast cancer cells [2] is on record as “best anticancer effect”. In the experiment with colorectal cancer cells, the “anticancer drug resistance (growth rate 50 ratio, GR50 ratio)” value is “overcome anticancer drug resistance” and the cell viability result is on record as “significantly reduce cell viability”.

`COc1cc(/C=C/C(=O)CC(=O)/C=C/c2ccc(O)c(OC)c2)ccc1O` [curcumin]: the intracellular acidity result in the experiment on Breast cancer cells [1] is listed as “same effect as cariporide; also recorded: closest to normal”. The “anticancer effect (cell viability)” value in the experiment with Breast cancer cells [2] was “best anticancer effect”.
